Measured values from patent publication US20230159509A1 (Amathus Therapeutics, Inc., priority 2020, published 2023).

How the values were obtained:
[1] = biological target: T1, TRAP1 enzyme (Homo sapiens, UniProt Q12931); assay: Malachite green phosphate assay of TRAP1 ATPase activity; type: biochemical; conditions: for EC50: concentration for half maximal activation, read-out: Malachite Green Fluor DRC: GeoMean EC50; for Emax: maximal percent activation, read-out: Malachite Green Fluor DRC: Mean Emax
T1 construct: 150 nM Trap1 enzyme was incubated with various concentrations of the test compound
T1 sequence (Q12931 60-704): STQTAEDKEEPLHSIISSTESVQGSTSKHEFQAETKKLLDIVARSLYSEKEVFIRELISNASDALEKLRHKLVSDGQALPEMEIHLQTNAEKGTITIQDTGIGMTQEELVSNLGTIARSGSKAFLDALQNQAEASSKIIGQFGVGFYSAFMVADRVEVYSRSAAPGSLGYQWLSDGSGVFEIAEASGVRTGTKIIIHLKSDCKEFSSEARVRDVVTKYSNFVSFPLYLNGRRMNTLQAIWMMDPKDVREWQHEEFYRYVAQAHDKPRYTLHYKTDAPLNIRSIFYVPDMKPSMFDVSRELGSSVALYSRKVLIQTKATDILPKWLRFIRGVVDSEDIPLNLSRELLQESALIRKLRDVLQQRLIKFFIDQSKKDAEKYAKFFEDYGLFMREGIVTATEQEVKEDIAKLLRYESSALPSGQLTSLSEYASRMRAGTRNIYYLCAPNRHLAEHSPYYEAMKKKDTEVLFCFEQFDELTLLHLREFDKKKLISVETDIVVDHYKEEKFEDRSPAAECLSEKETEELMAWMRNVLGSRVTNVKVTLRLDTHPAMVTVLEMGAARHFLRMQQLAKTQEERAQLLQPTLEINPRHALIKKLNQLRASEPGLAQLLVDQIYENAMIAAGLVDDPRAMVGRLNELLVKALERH
Method: The Potency of test compounds to modulate the ATPase activity of TRAP1 enzyme was evaluated using malachite green phosphatase assay. The assay is based on quantification of the green complex formed between Malachite Green, molybdate and inorganic phosphate generated in the phosphatase reaction. Assays were performed using a Malachite Green assay kit. All the assays were carried out in a 96-well transparent plate. The buffer used was 50 mM HEPES (pH 7.5), 20 mM KCl, 4 mM MgCl2 and 0.05% BSA. 150 nM Trap1 enzyme was incubated with various concentrations of the test compound (0.78 μM-100 μM) at 37° C. for 30 mins. 20 μM ATP was added to each well (except blank wells) to start the reaction and the plate was then incubated at 37° C. for 180 mins. 10 μl of the reaction volume of each sample was then transferred to a white 384-well proxiplate in quadruplets. 2.5 μl of Malachite Green reagent was added to all the wells and the plate was equilibrated for 15 mins. The reaction was stopped by adding 12% H2SO4 and the plate was read for fluorescence at 620 nm (λex=573 nm). The amount of phosphate released was estimated from a phosphate standard curve generated at the same experimental conditions. Emax (Maximal percent activation) and EC50 (concentration of test compound for half maximal activation) were estimated by fitting the dose response data to a sigmoidal curve fitting equation using Graphpad Prism software V.7.0.

[2] = biological target: T1, TRAP1 enzyme; assay: ADP Glo assay of TRAP1 ATPase activity; type: biochemical; conditions: for activation at 50 µM: 1 h, compound concentration 50 μM, read-out: ADP-Glo Percent Activation at 50 μM
Outline: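 Compound (0.79–100 μM) was preincubated 30 min at 37° C with 150 nM TRAP1 in 25 mM Pipes pH 7.5, 40 mM KCl, 0.05 mM MgCl2. Reaction started with 20 μM ATP, 60 min at 37° C. ADP measured by luminescence against a standard curve; activation fitted sigmoidally for EC50 and Emax.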

[3] = test system: tamoxifen-induced polycystic kidney disease model (Ksp-TamCre×PkdlLox); assay: Tamoxifen-induced polycystic kidney disease mouse model; type: in vivo; conditions: compound 1206 10 mg/kg po QD 14d
Method: Compound 1206 (10 mg/kg po, QD dosing for 14d, n=13/group) was assessed in a tamoxifen-induced polycystic kidney disease model (Ksp-TamCre×PkdlLox; Human Molecular Genetics, 2007, Vol. 16, No. 24, 3188-3196). A negative control group induced with tamoxifen (Vehicle) and a negative control group not induced with tamoxifen (No Tam) were included. A positive control group was dosed with everolimus. Mice were dosed orally on both PND 10, 11 with 25 mg/kg tamoxifen. Oral dosage of vehicle, compound 1206, and everolimus started from PND 14 onwards to PND 27. The readouts of this study were body weight, kidney weight, BUN levels and histopathology assessment including cyst index.
The fixated kidney half was processed for paraffin embedding and further pathological assessment after hematoxylin-eosin staining. One piece of each H-E stained kidney half was observed by a board certified pathologist, who read a cross section of the kidney. For each kidney one section was evaluated. From this section an overview photo was taken (2X) and used to calculate the cystic index. The cystic areas were identified by a color thresholding method using an image analysis system (Image software, public domain software, NIH, Bethesda, Md.). The threshold area was calculated within a defined ROI (region of interest) representing the total area analyzed. This area represents at least 70-80% of the entire kidney section. The cystic index (CI) is defined as the percentage of the area of cysts lumen (in pixels) over the total kidney area in the selected ROI (in pixels).

Compound | activation at 50 µM [2] | also measured
COc1ncc(NC(=O)c2ncc(-c3ccccc3)o2)cc1S(=O)(=O)Nc1ccc(Cl)cc1 [compound 535, N-(5-(N-(4-chlorophenyl)sulfamoyl)-6-methoxypyridin-3-yl)-5-phenyloxazole-2-carboxamide] | – | EC50 [1]: 10 to 20 µM; Emax [1]: 160 to 199%
Cc1cccc(C)c1NS(=O)(=O)c1cncc(NC(=O)c2cnc(-c3ccccc3)[nH]2)c1 [compound 592, N-(5-(N-(2,6-dimethylphenyl)sulfamoyl)pyridin-3-yl)-2-phenyl-1H-imidazole-5-carboxamide] | – | EC50 [1]: 20 to 100 µM; Emax [1]: 160 to 199%
COc1ncc(NC(=O)c2ncc(-c3ccccc3)o2)cc1S(=O)(=O)Nc1ccc(C(F)(F)F)cc1 [compound 594, N-(6-methoxy-5-(N-(4-(trifluoromethyl)phenyl)sulfamoyl)pyridin-3-yl)-5-phenyloxazole-2-carboxamide] | – | EC50 [1]: 20 to 100 µM; Emax [1]: 119 to 159%
COc1ncc(NC(=O)c2cnc(-c3ccccc3)o2)cc1S(=O)(=O)Nc1ccc(C(F)(F)F)cc1 [compound 604, N-(6-methoxy-5-(N-(4-(trifluoromethyl)phenyl)sulfamoyl)pyridin-3-yl)-2-phenyloxazole-5-carboxamide] | – | EC50 [1]: 20 to 100 µM; Emax [1]: 160 to 199%
O=C(Nc1cccc(S(=O)(=O)Nc2ccc(Cl)cc2)n1)c1cnc(-c2ccccc2)[nH]1 [compound 612, N-(6-(N-(4-chlorophenyl)sulfamoyl)pyridin-2-yl)-2-phenyl-1H-imidazole-5-carboxamide] | – | EC50 [1]: 20 to 100 µM; Emax [1]: 200 to 300%
COc1ncc(NC(=O)c2ncc(-c3ccccc3)o2)cc1S(=O)(=O)Nc1c(Cl)cccc1Cl [compound 670, N-(5-(N-(2,6-dichlorophenyl)sulfamoyl)-6-methoxypyridin-3-yl)-5-phenyloxazole-2-carboxamide] | – | EC50 ([2]; concentration for half maximal activation, read-out: ADP GLO DRC: GeoMean EC50): 20 to 100 µM; Emax ([2]; maximal percent activation, read-out: ADP GLO DRC: Mean Emax): 160 to 199%; EC50 [1]: 20 to 100 µM; Emax [1]: 200 to 300%
COc1ncc(NC(=O)c2ccc(N3CCN(C)CC3)c(Cl)c2)cc1S(=O)(=O)Nc1c(C)cccc1C [compound 2764] | 181 to 352% | –
COc1ncc(NC(=O)c2ccc(CO)cc2)cc1S(=O)(=O)Nc1c(C)cccc1C [compound 2766] | 151 to 180% | –
COc1ncc(NC(=O)c2cccc(CO)c2)cc1S(=O)(=O)Nc1c(C)cccc1C [compound 2767] | 181 to 352% | –
COc1nc(C(F)(F)F)c(C(=O)Nc2cnc(OC)c(S(=O)(=O)Nc3c(C)cccc3C)c2)s1 [compound 2768] | 181 to 352% | –
CCCN1CCN(c2ccc(C(=O)Nc3cnc(OC)c(S(=O)(=O)Nc4c(C)cccc4C)c3)cc2)CC1 [compound 2769] | 181 to 352% | –
COc1ncc(NC(=O)c2ccc(CN3CCCCC3)cc2)cc1S(=O)(=O)Nc1c(C)cccc1C [compound 2770] | 151 to 180% | –
COc1ncc(NC(=O)c2cn3c(n2)CCCC3)cc1S(=O)(=O)Nc1c(C)cccc1C [compound 2771] | 151 to 180% | –
COc1ncc(NC(=O)c2nccn2C)cc1S(=O)(=O)Nc1c(C)cccc1C [compound 2772] | 120 to 150% | –
COc1ncc(NC(=O)c2ccc(N3CCN(C)CC3)cc2Cl)cc1S(=O)(=O)Nc1c(C)cccc1C [compound 2774] | 181 to 352% | –
COc1ncc(NC(=O)c2ccc(N3CCN(C)CC3)nc2)cc1S(=O)(=O)Nc1c(C)cccc1C [compound 2775] | 181 to 352% | –
COc1ncc(NC(=O)c2cnn(C)c2C)cc1S(=O)(=O)Nc1c(C)cccc1C [compound 2776] | 120 to 150% | –
CO[C@H]1C[C@@H]2CC[C@@H](C)[C@@](O)(O2)C(=O)C(=O)N2CCCC[C@H]2C(=O)O[C@H]([C@H](C)C[C@@H]2CC[C@@H](OCCO)[C@H](OC)C2)CC(=O)[C@H](C)/C=C(\C)[C@@H](O)[C@@H](OC)C(=O)[C@H](C)C[C@H](C)/C=C/C=C/C=C/1C [everolimus, reference compound] | – | 2 KW/BW ratio (kidney weight/body weight) ([3]; compared to tamoxifen-induced vehicle control group): significantly lower; cystic index ([3]; compared with tamoxifen-induced vehicle control group): significantly lower

Further lines, with some results ahead:

activation at 50 µM [2] | Compound | also measured
120 to 150% | COc1ncc(NC(=O)c2csnn2)cc1S(=O)(=O)Nc1c(C)cccc1C [compound 2777] | –
151 to 180% | COc1ncc(NC(=O)c2[nH]ncc2Cl)cc1S(=O)(=O)Nc1c(C)cccc1C [compound 2779] | –
151 to 180% | COc1ncc(NC(=O)c2nnsc2C)cc1S(=O)(=O)Nc1c(C)cccc1C [compound 2780] | –
120 to 150% | COc1ncc(NC(=O)c2ccno2)cc1S(=O)(=O)Nc1c(C)cccc1C [compound 2781] | –
181 to 352% | COc1ncc(NC(=O)c2cccc(N3CCOCC3)c2C)cc1S(=O)(=O)Nc1c(C)cccc1C [compound 2782] | –
181 to 352% | COc1ncc(NC(=O)c2cccc(NC(=O)N(C)C)c2)cc1S(=O)(=O)Nc1c(C)cccc1C [compound 2784] | –
120 to 150% | COCc1c[nH]c(C(=O)Nc2cnc(OC)c(S(=O)(=O)Nc3c(C)cccc3C)c2)c1 [compound 2785] | –
181 to 352% | CCc1cc(C(=O)Nc2cnc(OC)c(S(=O)(=O)Nc3c(C)cccc3C)c2)nn1C [compound 2786] | –
151 to 180% | COc1ncc(NC(=O)c2ccc(C(C)(C)O)cc2)cc1S(=O)(=O)Nc1c(C)cccc1C [compound 2787] | –
181 to 352% | COc1ncc(NC(=O)c2ccc(N(C)C)nc2)cc1S(=O)(=O)Nc1c(C)cccc1C [compound 2788] | –
120 to 150% | COc1ncc(NC(=O)c2cnccc2N(C)C)cc1S(=O)(=O)Nc1c(C)cccc1C [compound 2789] | –
181 to 352% | COc1nc2c(cc1C(=O)Nc1cnc(OC)c(S(=O)(=O)Nc3c(C)cccc3C)c1)CCC2 [compound 2790] | –
181 to 352% | CCN1CCN(c2ccc(C(=O)Nc3cnc(OC)c(S(=O)(=O)Nc4c(C)cccc4C)c3)cc2)CC1 [compound 2791] | –
120 to 150% | COc1ncc(NC(=O)c2cc3c(s2)CCC3)cc1S(=O)(=O)Nc1c(C)cccc1C [compound 2792] | –
181 to 352% | COc1ncc(NC(=O)c2cnc3c(c2)OCCN3C)cc1S(=O)(=O)Nc1c(C)cccc1C [compound 2793] | –
